Reference: patent US20230323410A1, “BACTERIAL CELLS AND METHODS FOR PRODUCTION OF 2-FLUORO-CIS,CIS-MUCONATE” (priority 2020, published 2023)
Entries after “also recorded” stand apart in the source; their conditions may differ. Where two headings read alike, the source gives them in different places.

Assays:
[1] = tested on: CatR/Pcat; type: cell-based, P. putida KT2440
[2] = tested on: Pmuc3 pSEVA228; type: cell-based, Pseudomonas putida
[3] = tested on: BenR/Pben; type: cell-based, P. putida KT2440; conditions: for increase of induction compared to the uninduced system: 5 mM
[4] = tested on: XylS/Pm; type: cell-based, P. putida KT2440; conditions: for GFP expression from Pm relative to the one brought about by 1.0 mM 3-mBz: 5.0 mM inducer; for GFP expression under Pm(ML1-17) control relative to the expression provided by Pm: compound as inducer
[5] = tested on: P. putida KT2440; conditions: for growth rate as share of the maximum rate on glucose: 20 mM
[6] = tested on: P. knackmussii; test: Microtiter plate cultivation: growth with metabolites of the bioconversion; conditions: for growth rate as share of the μmax observed on only glucose: 15 mM
[7] = tested on: Pmuc10; test: as above; conditions: for Maximum growth rate μmax: Example 6 (improved method)
[8] = tested on: P. knackmussii; test: Shaken flask fermentation with 10 mM 2-FBz or 3-FBz; type: cell-based, Pseudomonas knackmussii; design: rate qp: unit not given here; conditions: for product formation rate qp: from 2-FBz; for rate qp: from 3-FBz
[9] = tested on: P. putida KT2440; test: as above; type: cell-based, Pseudomonas putida
[10] = tested on: msfGFP reporter gene under control of BCD10; type: cell-based, P. putida KT2440; conditions: 5 mM 3-FBz (inducible systems), 30 mM glucose, FIG. 6
[11] = Example 1, 30 mM as sole carbon source
[12] = Example 6 (improved method), 30 mM as sole carbon source
[13] = Example 1, 30 mM glucose, 10 mM additive
[14] = Example 1, 30 mM glucose, 15 mM additive
[15] = Example 1, 30 mM glucose, 20 mM additive
[16] = Example 6 (improved method), 30 mM glucose, 10 mM additive
[17] = Example 6 (improved method), 30 mM glucose, 15 mM additive
[18] = Example 6 (improved method), 30 mM glucose, 20 mM additive
[19] = Example 6 (improved method), 30 mM glucose, 1.0 mM additive
[20] = Example 6 (improved method), 30 mM glucose, 2.0 mM additive
[21] = Example 6 (improved method), 30 mM glucose, 5.0 mM additive
[22] = Example 1, 30 mM glucose, 5.0 mM additive
[23] = Example 1, 30 mM glucose, 0.5 mM additive
[24] = Example 1, 30 mM glucose, 1.0 mM additive
[25] = Example 1, 30 mM glucose, 2.0 mM additive
[26] = Example 6 (improved method), 30 mM glucose, 0.5 mM additive

O=C([O-])c1ccccc1.[K+] [K-benzoate, potassium benzoate]
GFP fluorescence as compared to the induction by 3-FBz ([1]; 5 mM): 35% | Maximum growth rate μmax ([2]; Example 1, 30 mM K-benzoate as carbon source, 0.5 mM 3-mBz): 0.16 h⁻¹ | Maximum growth rate μmax ([2]; Example 6 (improved method), 30 mM K-benzoate as carbon source, 0.5 mM 3-mBz): 0.16 h⁻¹ | increase in GFP expression over basal expression ([3]; 2.0 mM): No further increase | increase of induction compared to the uninduced system [3]: 70% | GFP expression from Pm relative to the one brought about by 1.0 mM 3-mBz [4]: 20% | Maximum growth rate μmax [5, 11]: 0.37 h⁻¹ | Maximum growth rate μmax [5, 12]: 0.62 h⁻¹ | Maximum growth rate μmax [6, 11]: no growth | Maximum growth rate μmax [6, 12]: no growth | Maximum growth rate μmax ([7]; 30 mM as sole carbon source): 0.53 h⁻¹

O=C(O)c1ccccc1F [Strain 2-FBz, 2-fluorobenzoic acid]
qs ([8]; 10 mM 2-FBz, initial about 20 h, Example 1): 0.26 mmol gCDW^−1 h^−1 | qs ([8]; 10 mM 2-FBz, initial about 20 h, Example 6): 0.81 mmol gCDW^−1 h^−1 | growth rate as share of the maximum rate on glucose ([5]; Example 1): 80% | Maximum growth rate μmax [5, 13]: 0.57 h⁻¹ | Maximum growth rate μmax [5, 14]: 0.53 h⁻¹ | Maximum growth rate μmax [5, 15]: 0.48 h⁻¹ | Maximum growth rate μmax [5, 16]: 0.56 h⁻¹ | Maximum growth rate μmax [5, 17]: 0.52 h⁻¹ | Maximum growth rate μmax [5, 18]: 0.46 h⁻¹ | growth rate as share of the maximum rate on glucose ([5]; Example 6): 53% | growth rate as share of the μmax observed on only glucose ([6]; Example 1): 58% | Maximum growth rate μmax [6, 13]: 0.25 h⁻¹ | Maximum growth rate μmax [6, 14]: 0.22 h⁻¹ | Maximum growth rate μmax [6, 15]: unable to grow at all | Maximum growth rate μmax ([6]; Example 1, 30 mM glucose, 20 mM additive, listed as K-2-F-benzoate): no growth | Maximum growth rate μmax [6, 16]: 0.25 h⁻¹ | Maximum growth rate μmax [6, 17]: 0.19 h⁻¹ | Maximum growth rate μmax [6, 18]: unable to grow at all | Maximum growth rate μmax ([6]; Example 6 (improved method), 30 mM glucose, 20 mM additive, listed as K-2-F-benzoate): no growth | growth rate as share of the μmax observed on only glucose ([6]; Example 6): 54%

O=C(O)/C=C\C=C(\F)C(=O)O [Strain 2-FMA, 2-fluoro-cis,cis-muconate]
combined product formation rate qp ([9]; 10 mM 3-FBz): 0.06 mmol gCDW^−1 h^−1 | product formation rate qp ([9]; from 10 mM 2-FBz): 0.06 mmol gCDW^−1 h^−1 | response to 1.0 mM as compared to 1.0 mM ccMA ([1]; 1.0 mM): 6.7 fold | product formation rate qp ([8]; Example 1): 0.05 mmol gCDW^−1 h^−1 | product formation rate qp ([8]; Example 6): 0.03 mmol gCDW^−1 h^−1 | rate qp ([8]; Example 1): 0.05 | rate qp ([8]; Example 6): 0.09 | reduction of growth rate and maximum biomass concentration ([5]; 15 mM, 30 mM glucose, FIG. 14): 50% | concentration up to which the growth profile was similar to cultures with glucose only ([5]; 30 mM glucose, FIG. 14): up to 10 mM | Maximum growth rate μmax [5, 19]: 0.86 h⁻¹ | Maximum growth rate μmax [5, 20]: 1.00 h⁻¹ | Maximum growth rate μmax [5, 21]: 0.86 h⁻¹ | Maximum growth rate μmax [5, 16]: 0.80 h⁻¹ | Maximum growth rate μmax [5, 17]: 0.66 h⁻¹ | Maximum growth rate μmax [5, 18]: no growth | Maximum growth rate μmax ([7]; 30 mM glucose, 1 mM additive): 1.24 h⁻¹ | Maximum growth rate μmax ([7]; 30 mM glucose, 2.0 mM additive): 1.20 h⁻¹ | Maximum growth rate μmax ([7]; 30 mM glucose, 5 mM additive): 1.08 h⁻¹ | Maximum growth rate μmax ([7]; 30 mM glucose, 10 mM additive): 0.98 h⁻¹ | Maximum growth rate μmax ([7]; 30 mM glucose, 15 mM additive): 0.47 h⁻¹ | Maximum growth rate μmax ([7]; 30 mM glucose, 20 mM additive): no growth

O=C(O)c1cccc(F)c1 [Strain 3-FBz, 3-fluorobenzoic acid]
induction ([1]; 0.5 mM): most strongly and fully induced | Maximum growth rate μmax [2, 13]: 0.33 h⁻¹ | Maximum growth rate μmax [2, 14]: 0.32 h⁻¹ | Maximum growth rate μmax [2, 15]: 0.30 h⁻¹ | Maximum growth rate μmax [2, 16]: 0.33 h⁻¹ | Maximum growth rate μmax [2, 17]: 0.32 h⁻¹ | Maximum growth rate μmax [2, 18]: 0.30 h⁻¹ | qs ([8]; 10 mM 3-FBz, Example 1): 0.090 mmol gCDW^−1 h^−1 | qs ([8]; 10 mM 3-FBz, Example 6): 1.01 mmol gCDW^−1 h^−1 | increase in GFP expression over basal expression ([3]; 1.0 mM): No further increase | increase of induction compared to the uninduced system [3]: 70% | expression strength ([4]; 1.0 mM): close to the basal, uninduced expression | GFP expression from Pm relative to the one brought about by 1.0 mM 3-mBz [4]: 7% | GFP expression under Pm(ML1-17) control relative to the expression provided by Pm [4]: 70% | maximum concentration in the presence of which the strain was able to grow ([5]; 30 mM glucose, substantially reduced μmax): 10 mM | Maximum growth rate μmax [5, 22]: 0.36 h⁻¹ | Maximum growth rate μmax [5, 13]: 0.13 h⁻¹ | Maximum growth rate μmax [5, 14]: no growth | Maximum growth rate μmax [5, 15]: no growth | Maximum growth rate μmax [5, 21]: 0.25 h⁻¹ | Maximum growth rate μmax [5, 16]: 0.13 h⁻¹ | Maximum growth rate μmax [5, 17]: no growth | Maximum growth rate μmax [6, 22]: almost completely impaired | Maximum growth rate μmax ([6]; Example 1, 30 mM glucose, 5.0 mM additive, listed as K-3-F-benzoate): 0.01 h⁻¹ | Maximum growth rate μmax [6, 13]: no growth | Maximum growth rate μmax [6, 14]: no growth | Maximum growth rate μmax [6, 15]: no growth | Maximum growth rate μmax [6, 21]: almost completely impaired | Maximum growth rate μmax ([6]; Example 6 (improved method), 30 mM glucose, 5.0 mM additive, listed as K-3-F-benzoate): 0.04 h⁻¹ | Maximum growth rate μmax [6, 16]: no growth | Maximum growth rate μmax [6, 17]: no growth | Maximum growth rate μmax [6, 18]: no growth | concentration up to which no toxic effects were observed ([7]; 30 mM glucose, FIG. 13): ≤ 20000 µM | highest concentration at which the strain was able to produce biomass ([7]; 30 mM glucose, FIG. 13, strongly reduced rate and maximum biomass concentration): ≤ 50 mM | Maximum growth rate μmax ([7]; 30 mM glucose, 10 mM additive): 0.45 h⁻¹ | Maximum growth rate μmax ([7]; 30 mM glucose, 20 mM additive): 0.47 h⁻¹ | Maximum growth rate μmax ([7]; 30 mM glucose, 30 mM additive): 0.27 h⁻¹ | Maximum growth rate μmax ([7]; 30 mM glucose, 40 mM additive): 0.24 h⁻¹ | Maximum growth rate μmax ([7]; 30 mM glucose, 50 mM additive): 0.20 h⁻¹

Oc1cccc(F)c1O [Strain 3-FC, 3-fluorocatechol]
Maximum growth rate μmax [2, 23]: 0.61 h⁻¹ | Maximum growth rate μmax [2, 24]: 0.48 h⁻¹ | Maximum growth rate μmax [2, 25]: 0.22 h⁻¹ | Maximum growth rate μmax [2, 26]: 0.74 h⁻¹ | Maximum growth rate μmax [2, 20]: 0.22 h⁻¹ | Maximum growth rate μmax [5, 23]: 0.72 h⁻¹ | Maximum growth rate μmax [5, 24]: 0.65 h⁻¹ | Maximum growth rate μmax [5, 25]: 0.39 h⁻¹ | Maximum growth rate μmax [5, 26]: 0.71 h⁻¹ | Maximum growth rate μmax [5, 19]: 0.68 h⁻¹ | Maximum growth rate μmax [5, 20]: 0.36 h⁻¹ | Maximum growth rate μmax [5, 21]: no growth | Maximum growth rate μmax [6, 23]: 0.28 h⁻¹ | Maximum growth rate μmax [6, 24]: 0.17 h⁻¹ | Maximum growth rate μmax [6, 25]: 0.11 h⁻¹ | Maximum growth rate μmax [6, 26]: 0.32 h⁻¹ | Maximum growth rate μmax [6, 19]: 0.31 h⁻¹ | Maximum growth rate μmax [6, 20]: 0.12 h⁻¹ | Maximum growth rate μmax ([7]; 30 mM glucose, 2.0 mM additive): no growth

Cc1cccc(C(=O)O)c1 [Strain 3-mBz, 3-methyl benzoate, reference compound]
response ([1]; 1.0 mM): no response at all | increase in GFP expression over basal expression ([3]; 1.0 mM): No further increase | GFP expression under Pm(ML1-17) control relative to the expression provided by Pm [4]: 70% | induction by 1 mM as compared to 5 mM of the inducer ([4]; data not shown): 94%

Oc1ccc(F)cc1O [Strain 4-FC, 4-fluorocatechol]
Maximum growth rate μmax [2, 23]: 0.55 h⁻¹ | Maximum growth rate μmax [2, 24]: 0.54 h⁻¹ | Maximum growth rate μmax [2, 25]: 0.35 h⁻¹ | Maximum growth rate μmax [2, 26]: 0.55 h⁻¹ | Maximum growth rate μmax [2, 19]: 0.50 h⁻¹ | Maximum growth rate μmax [2, 20]: 0.28 h⁻¹ | Maximum growth rate μmax [5, 23]: 0.77 h⁻¹ | Maximum growth rate μmax [5, 24]: 0.64 h⁻¹ | Maximum growth rate μmax [5, 25]: 0.48 h⁻¹ | Maximum growth rate μmax [5, 26]: 0.72 h⁻¹ | Maximum growth rate μmax [5, 19]: 0.52 h⁻¹ | Maximum growth rate μmax [5, 20]: 0.34 h⁻¹ | Maximum growth rate μmax [5, 21]: no growth | Maximum growth rate μmax [6, 23]: 0.34 h⁻¹ | Maximum growth rate μmax [6, 24]: 0.32 h⁻¹ | Maximum growth rate μmax [6, 25]: 0.25 h⁻¹ | Maximum growth rate μmax [6, 26]: 0.31 h⁻¹ | Maximum growth rate μmax [6, 19]: 0.26 h⁻¹ | Maximum growth rate μmax [6, 20]: 0.17 h⁻¹

Oc1ccccc1O [catechol, pyrocatechol]
Maximum growth rate μmax [2, 25]: 0.86 h⁻¹ | Maximum growth rate μmax [2, 26]: 0.62 h⁻¹ | Maximum growth rate μmax [2, 19]: 0.74 h⁻¹ | Maximum growth rate μmax [2, 20]: 0.81 h⁻¹ | Maximum growth rate μmax [5, 23]: 0.72 h⁻¹ | Maximum growth rate μmax [5, 24]: 0.77 h⁻¹ | Maximum growth rate μmax [5, 25]: 0.78 h⁻¹ | increase of μmax with increasing concentration ([5]; Example 1, up to 2 mM): up to 30% | Maximum growth rate μmax [5, 26]: 0.69 h⁻¹ | Maximum growth rate μmax [5, 19]: 0.71 h⁻¹ | Maximum growth rate μmax [5, 20]: 0.68 h⁻¹ | Maximum growth rate μmax [6, 23]: 0.36 h⁻¹ | Maximum growth rate μmax [6, 24]: 0.33 h⁻¹ | Maximum growth rate μmax [6, 25]: 0.31 h⁻¹ | Maximum growth rate μmax [6, 26]: 0.36 h⁻¹ | Maximum growth rate μmax [6, 19]: 0.33 h⁻¹ | Maximum growth rate μmax [6, 20]: 0.29 h⁻¹ | toxic effect ([6]; up to 2 mM): slightly toxic effect; also recorded: Only a little toxic effect

P14g: constitutive promoter, SEQ ID NO: 50 (DNA GCCCATTGACAAGGCTCTCGCGGCCAGGTATAATTGCACGA; expressed or natural sequence) [Strain P14g, reference compound]
transcription initiation rate: quotient of OD630 nm-normalized fluorescence with the one of Ptac [10]: 2.51
